From US20070254309A1, “Methods for Assessing Embryo Viability” (Northern Sydney and Central Coast Area Health Service, priority 2006, published 2007)

Tested on: p53
Assay: Western blot quantitation of p53 released into embryo culture media
Assay type: cell-based, mouse
Settings: embryos cultured in modHTF in the absence of Paf, compared with 0.1 μM Paf supplement; FIG. 3
Procedure: Embryos were collected and washed 3 times in cold PBS and transferred in a maximum volume of 1.5 μl PBS. Embryo culture media aliquots had embryos and all cells removed and then subjected to freeze drying. The lyophilized proteins were redissolved in 1.5 μl of water. Embryo or reconstituted culture media was mixed with 1.5 μl of 2X extraction buffer (2X PBS, 2% Triton X-100, 24 mM deoxycholic acid, 0.2% sodium dodecyl sulfate, 20 mM NaF, 20 mM Na4P2O7, 2 mM PMSF, 3.08 μM Aprotinin, 42 μM Leupeptin and 2.91 μM Pepstatin A-all from Sigma). The embryos were lysed by three cycles of freezing in liquid nitrogen and thawing (with vortexing). […]
Proteins were blotted into PVDF membranes (Hybond-P, Amersham Pharmacia) in a semi-dry blotting apparatus overnight using transfer buffer (12 mM Tris PH 7.0, 96 mM Glycine and 20% methanol). […] Membranes were probed with 1:500 diluted anti P53 antibody overnight at 4° C. in 2.5% skim milk, and detected with 1:500 diluted horse radish peroxidase (Jackson ImmunoResearch Laboratories, West Grove, Pa., USA) conjugated mouse antibody. […]
p53 was detected by Western blot as described above and densitometry was performed using Scion Image software (Scion Corporation, Frederick, Md., USA).

In the case of “1-o-octadecyl/hexadecyl-2-acetyl-sn-glycero-3-phosphocholine [Paf]”, the “extra-embryonic concentration of p53” value is reported as “higher”.
